In patent US6238873A, “Methods of screening for agonists and antagonists of the interaction between the human KIAA0001 receptor and ligands thereof” (Smithkline Beecham Corporation, priority 1999, dated 2001):

Experiments:
[1] = biological target: T1, human KIAA0001 receptor (Homo sapiens, UniProt Q15391); test: Specificity of response: nucleotide di-phosphate sugar spotted onto agar plate infused with yeast carrying human KIAA0001 receptor and FUS1-LacZ reporter; format: cell-based; conditions: 10 nmoles (1 microliter of 10 mM solution) spotted onto agar plate
T1 sequence (Q15391 1-338): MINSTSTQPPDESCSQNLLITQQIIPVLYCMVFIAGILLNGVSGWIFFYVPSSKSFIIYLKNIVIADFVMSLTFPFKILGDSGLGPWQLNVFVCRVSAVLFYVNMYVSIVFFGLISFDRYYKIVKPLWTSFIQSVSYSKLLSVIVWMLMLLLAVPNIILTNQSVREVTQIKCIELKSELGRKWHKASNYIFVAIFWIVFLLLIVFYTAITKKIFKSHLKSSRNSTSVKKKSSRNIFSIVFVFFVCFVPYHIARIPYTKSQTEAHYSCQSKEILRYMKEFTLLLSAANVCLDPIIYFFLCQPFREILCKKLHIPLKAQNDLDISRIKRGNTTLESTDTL
Experimental: The specificity of this response was determined by spotting 10 nmoles (1 microliter of 10 mM solution) of each nucleotide di-phosphate sugar onto an agar plate infused with a yeast strain carrying the human KIAA0001 receptor and the FUS1-LacZ reporter, as described above.

[2] = biological target: T1, human KIAA0001 receptor; conditions: FUS1-LacZ yeast expressing human KIAA0001 receptor

Compound	response on agar plate (FUS1-LacZ reporter) [1]	response determined by expression of -galactosidase [2]
Nc1ncnc2c1ncn2[C@@H]1O[C@H](COP(=O)(O)OP(=O)(O)O[C@H]2O[C@H](CO)[C@@H](O)[C@H](O)[C@H]2O)[C@@H](O)[C@H]1O [ADP-glucose]	failed to produce a response	–
Nc1ncnc2c1ncn2[C@@H]1O[C@H](COP(=O)(O)OP(=O)(O)O[C@H]2O[C@H](CO)[C@@H](O)[C@H](O)[C@@H]2O)[C@@H](O)[C@H]1O [ADP-mannose]	failed to produce a response	–
Nc1ncnc2c1ncn2[C@@H]1O[C@H](COP(=O)(O)OP(=O)(O)OC[C@H]2OC(O)[C@H](O)[C@@H]2O)[C@@H](O)[C@H]1O (stereo partly drawn) [ADP-ribose]	failed to produce a response	–
Nc1ccn([C@@H]2O[C@H](COP(=O)(O)OP(=O)(O)O[C@H]3O[C@H](CO)[C@@H](O)[C@H](O)[C@H]3O)[C@@H](O)[C@H]2O)c(=O)n1 [CDP-glucose]	failed to produce a response	–
C[C@@H]1O[C@H](OP(=O)(O)OP(=O)(O)OC[C@H]2O[C@@H](n3cnc4c(=O)[nH]c(N)nc43)[C@H](O)[C@@H]2O)[C@@H](O)[C@H](O)[C@@H]1O [GDP-fucose]	failed to produce a response	–
Nc1nc2c(ncn2[C@@H]2O[C@H](COP(=O)(O)OP(=O)(O)O[C@H]3O[C@H](CO)[C@@H](O)[C@H](O)[C@H]3O)[C@@H](O)[C@H]2O)c(=O)[nH]1 [GDP-glucose]	failed to produce a response	–
Nc1nc2c(ncn2[C@@H]2O[C@H](COP(=O)(O)OP(=O)(O)O[C@H]3O[C@H](CO)[C@@H](O)[C@H](O)[C@@H]3O)[C@@H](O)[C@H]2O)c(=O)[nH]1 [GDP-mannose]	failed to produce a response	–
Cc1cn([C@H]2C[C@H](O)[C@@H](COP(=O)(O)OP(=O)(O)O[C@H]3O[C@H](CO)[C@@H](O)[C@H](O)[C@H]3O)O2)c(=O)[nH]c1=O [TDP-glucose]	failed to produce a response	–
CC(=O)N[C@H]1[C@@H](OP(=O)(O)OP(=O)(O)OC[C@H]2O[C@@H](n3ccc(=O)[nH]c3=O)[C@H](O)[C@@H]2O)O[C@H](CO)[C@@H](O)[C@@H]1O [UDP-N-acetyl glucosamine]	positive response	receptor-dependentresponse
O=C(O)[C@H]1O[C@H](OP(=O)(O)OP(=O)(O)OC[C@H]2O[C@@H](n3ccc(=O)[nH]c3=O)[C@H](O)[C@@H]2O)[C@H](O)[C@@H](O)[C@@H]1O [UDP-glucuronic acid]	positive response	receptor-dependentresponse
